According to US6900008B2, “Methods and formulations for minimizing spasticity in blood vessel grafts” (Emory University, priority 2001, dated 2005):
Marks after values point to notes of the source that are not given here.

Key:
[1] = tested on: human radial artery endothelium; assay: Endothelial function: relaxation to acetylcholine of U46619-precontracted human radial artery rings; type: cell-based; conditions: 12 μM ACh; without fasciotomy; PBZ at 1000 μM where used
Description: (§1) Radial artery (RA) segments were obtained from patients having elective coronary artery bypass grafting with or without cardiopulmonary bypass at the Crawford Long Hospital of Emory University. A modified Allen's test was performed to assess the adequacy of collateral circulation to the hand preoperatively. The RA was harvested with its pedicle containing the venae comitantes, perivascular fat and areolar tissue (no fasciotomy) using a “no-touch” technique. Branches of the RA were ligated with vascular clips. A subset of the radial artery grafts had the musculofascial tissue incised (with fasciotomy) to expose the aerolar tissue adjacent to the graft. […]
(§2) The rings were then incubated with increasing concentrations of PE (0.5 to 15 μM) or NE (0.5 to 15 μM). After the highest concentration of alpha adrenergic agent was achieved, 30 mM KCl was added to the bath to quantify the maximal nonreceptor-mediated constriction. […]
(§3) The changes in isometric force were quantified using an analog-to-digital converter sampling at 2 Hz. The responses were analyzed using a Windows-based videographics program ([…], Wake Forest University, Winston-Salem, N.C.). The force of contraction elicited by the exposure to increasing concentrations of PE and NE was expressed as a percentage of the maximal contraction generated by KCl in each ring. […]

[2] = tested on: radial artery segments (endothelium); assay: Endothelial relaxation response to acetylcholine of stored radial artery segments; type: cell-based, canine
Description: The endothelium contributes to the overall vascular tone by tonic release of autacoids such as nitric oxide among other vasoactive substances. In addition, any attenuation of function related to autacoid release by phenoxybenzamine or its diluents would be undesirable.

[3] = tested on: human radial artery segments; assay: Phenylephrine-induced vasoconstriction of human radial artery rings in organ chambers; type: cell-based; conditions: 15 μM PE
Description: Radial artery (RA) segments were obtained from patients having elective coronary artery bypass grafting with or without cardiopulmonary bypass at the Crawford Long Hospital of Emory University. A modified Allen's test was performed to assess the adequacy of collateral circulation to the hand preoperatively. The RA was harvested with its pedicle containing the venae comitantes, perivascular fat and areolar tissue (no fasciotomy) using a “no-touch” technique. Branches of the RA were ligated with vascular clips. A subset of the radial artery grafts had the musculofascial tissue incised (with fasciotomy) to expose the aerolar tissue adjacent to the graft. The RA was then placed in a solution containing 20 mL heparinized blood, 1.6 mL 1% lidocaine and 0.4 mL papaverine (30 mg/mL) for approximately 30 minutes. […] Prior to its placement in the aortocoronary position, a small segment of the RA was obtained and immediately placed in Krebs-Henseleit (K-H) buffer (118 mmol/L NaCl, 4.7 mmol/L KCl, 1.2 mmol/L KH2PO4, 1.2 mmol/L MgSO4, 2.5 mmol/L CaCl2, 12.5 mmol/L NaHCO3, and 10 mmol/L glucose) at 4° C., pH 7.4 and transported to the Cardiothoracic Research Laboratory.
The harvested radial artery segment with or without fasciotomy was placed into K-H buffer pH 7.4 with either 10, 100 or 1000 μM PBZ or vehicle. The radial artery was flushed intraluminally twice with this solution, once at the beginning and once at the end of a 30 minute incubation period, which approximates the time between RA harvest and placement in the aortocoronary position. In addition, Control RA segments were obtained prior to intraoperative pretreatment of the conduit with the papaverine/lidocaine solution and received no other treatment. The segments were prepared for placement in organ chambers by carefully skeletonizing them in cold K-H buffer and cutting them into rings three to five mm in length. The rings were then mounted on stainless steel hooks, connected to FT-03 force displacement transducers, and placed into Radnoti organ chambers (Radnoti Glass, Monrovia, Calif. containing 7 mL of oxygenated (95% O2, 5% CO2) K-H buffer at 37° C. and pH 7.4. Indomethacin (10 μmol/L) was added to the buffer to block responses to endogenous prostanoids. The rings were stabilized for one hour with frequent buffer changes and set to a predetermined tension that allowed 75% of maximal contraction to 30 mM potassium chloride (KCl).
The rings were then incubated with increasing concentrations of PE (0.5 to 15 μM) or NE (0.5 to 15 μM). After the highest concentration of alpha adrenergic agent was achieved, 30 mM KCl was added to the bath to quantify the maximal nonreceptor-mediated constriction. In randomly selected vessels, the integrity of the radial artery endothelium was also tested for its receptor-dependent relaxation response to incremental concentrations of acetylcholine (ACh), a stimulator of nitric oxide synthase. The rings were precontracted with the thromboxane A2 mimetic U46619 (1.4 nmol/L), and then exposed to increasing concentrations of Ach (1 nmol/L to 11.7 μmol/L) in the presence of 10 μM indomethacin.
The changes in isometric force were quantified using an analog-to-digital converter sampling at 2 Hz. The responses were analyzed using a Windows-based videographics program ([…], Wake Forest University, Winston-Salem, N.C.). The force of contraction elicited by the exposure to increasing concentrations of PE and NE was expressed as a percentage of the maximal contraction generated by KCl in each ring. The degree of relaxation after exposure to ACh was expressed as the percent tension reduction from the maximal force of contraction obtained from U46619.
If a significant difference between groups was assigned by ANOVA, a post-hoc Student-Newman-Keuls test was applied to locate the source of differences. A p value of <0.05 was considered to be statistically significant. All data are reported as means±the standard error of the mean.

[4] = tested on: canine radial artery segments; assay: Norepinephrine-induced contraction of pretreated canine radial artery segments in organ chambers; type: cell-based; conditions: for Maximal constriction response to norepinephrine, % of KCl response: KCl 30 mmol/L
Description: (§4) Canine radial arteries were harvested without pedicles, and incubated in control buffer or solutions of papavarine (10^−6M), 2, 3-butadione monoxime (BDM, 10^−6M) (a putative protein phosphatase) or phenoxybenzamine (10^−6M) for a period of 30 minutes. The arteries were then washed with buffer and stored in a drug-free culture medium for a set time period (2 hours, 24 hours or 48 hours per example). After storage, vasopressors norepinephrine or phenylephrine were added at incremental concentrations ranging from 0.7 to 3.5 μmol/L (norepinephrine) or 0.300 to 1.5 μmol/L (phenylephrine) to all arterial samples to attempt to induce spasticity or vasoconstriction. The degree of vasoconstriction was then quantified in organ chambers. The responses of the arterial samples to norepinephrine or phenylephrine were compared with spasticity or constriction with receptor-independent potassium chloride (KCl) at 30 mmol/L.
(§5) The maximum responses of untreated and treated radial artery segments of KCl, phenylephrine and norepinephrine (in grams of tension) are summarized in Table 1. The constriction (contraction) responses to phenylephrine and norepinephrine given below are represented as a percentage of the responses to KCl, i.e. 100×(grams tension norepinephrine/grams tension KCl).

[5] = tested on: human radial artery segments; assay: Norepinephrine-induced vasoconstriction of human radial artery rings in organ chambers; type: cell-based
Description: as §1, §2, §3

[6] = tested on: canine radial artery segments; assay: Phenylephrine-induced contraction of pretreated canine radial artery segments in organ chambers; type: cell-based; conditions: for Constriction response to the maximum concentration of phenylephrine, % of KCl response: KCl 30 mmol/L
Description: as §4, §5

[7] = 2 Hours drug-free storage after 30 min incubation with 10^−6M drug
[8] = 24 Hours drug-free storage after 30 min incubation with 10^−6M drug
[9] = 48 Hours drug-free storage after 30 min incubation with 10^−6M drug
[10] = 2 hours after 30 min pretreatment with 10^−6M drug
[11] = 24 hours after 30 min pretreatment with 10^−6M drug
[12] = 48 hours after 30 min pretreatment with 10^−6M drug
[13] = 48 hours of storage, did not reach significance
[14] = after washing (2 hours) or 24 or 48 hours after the 30-minute pretreatment, 10^−6M

CC(COc1ccccc1)N(CCCl)Cc1ccccc1 (centres unmarked) [phenoxybenzamine]
Relaxation response to ACh (percent tension reduction from U46619 contraction) [1]: 81.0±11.8%
Maximum relaxation response to the highest concentration of acetylcholine ([2]; after 24 hours of storage): 57%±6%
Maximum relaxation response to the highest concentration of acetylcholine ([2]; after 48 hours of storage): 30%±5%
Maximum relaxation response to the highest concentration of acetylcholine ([2]; at 2 hours of storage): 61%±5%
Attenuation of vasoconstriction response to PE, % of control ([3]; 10 μM PBZ): 63%
Contraction at the highest concentration of PE, % of the KCl response ([3]; 10 μM PBZ 30 min in addition to papaverine/lidocaine): 16.5±4.3%
Attenuation of vasoconstriction response to PE, % of control ([3]; 100 μM PBZ): 80%
Contraction at the highest concentration of PE, % of the KCl response ([3]; 100 μM PBZ 30 min in addition to papaverine/lidocaine): 8.7±5.1%
Attenuation of vasoconstriction response to PE, % of control ([3]; 1000 μM PBZ): 116%
Contraction at the highest concentration of PE, % of the KCl response ([3]; 1000 μM PBZ 30 min in addition to papaverine/lidocaine): −7.2±4.4%
Contraction response to norepinephrine from resting force (maximum response) [4, 7]: 0.80 ± 0.05^b grams of tension
Contraction response to norepinephrine from resting force (maximum response) [4, 8]: −0.58 ± 0.05^b grams of tension
Contraction response to norepinephrine from resting force (maximum response) [4, 9]: −1.62 ± 0.36^b grams of tension
Maximal constriction response to norepinephrine, % of KCl response [4, 10]: −7%±1%
Maximal constriction response to norepinephrine, % of KCl response [4, 11]: −5%±5%
Maximal constriction response to norepinephrine, % of KCl response [4, 12]: −20%±5%
Effect on constriction to NE (in words) ([5]; PBZ at 10 μM): inhibited constriction to concentrations of NE greater than 7 μM
Effect on constrictor responses to NE (in words) ([5]; PBZ at 1000 μM, across all concentrations of NE): completely inhibited
Contraction response to phenylephrine from resting force (maximum response) [6, 7]: 2.03 ± 0.13 ^b grams of tension
Contraction response to phenylephrine from resting force (maximum response) [6, 8]: 0.20 ± 0.01^b grams of tension
Contraction response to phenylephrine from resting force (maximum response) [6, 9]: −1.08 ± 0.19^b grams of tension
Constriction response to the maximum concentration of phenylephrine, % of KCl response [6, 10]: 19%±8%
Constriction response to the maximum concentration of phenylephrine, % of KCl response [6, 11]: 1%±4%
Constriction response to the maximum concentration of phenylephrine, % of KCl response [6, 12]: −12%±4%

CC(=O)C(C)=NO [BDM, 2,3-butadione monoxime]
Contraction response to norepinephrine from resting force (maximum response) [4, 7]: 5.69 ± 0.29 grams of tension
Contraction response to norepinephrine from resting force (maximum response) [4, 8]: 4.22 ± 0.75 grams of tension
Contraction response to norepinephrine from resting force (maximum response) [4, 9]: 7.01 ± 0.85 grams of tension
Maximal constriction response to norepinephrine, % of KCl response [4, 10]: approximately 75%
Constriction responses to norepinephrine compared with control vessels (in words) ([4]; after 24 hours and 48 hours of drug-free storage): similar
Contraction response to phenylephrine from resting force (maximum response) [6, 7]: 8.35 ± 0.79 grams of tension
Contraction response to phenylephrine from resting force (maximum response) [6, 8]: 9.43 ± 0.64 grams of tension
Contraction response to phenylephrine from resting force (maximum response) [6, 9]: 7.01 ± 0.80 grams of tension
Constriction response to the maximum concentration of phenylephrine, % of KCl response [6, 12]: approximately 39%
Constrictor responses to phenylephrine compared with control segments (in words) ([6]; at 2 hours and 24 hours): very similar

COc1ccc(Cc2nccc3cc(OC)c(OC)cc23)cc1OC [papaverine]
Contraction response to norepinephrine from resting force (maximum response) [4, 7]: 7.65 ± 0.72 grams of tension
Contraction response to norepinephrine from resting force (maximum response) [4, 8]: 10.37 ± 0.26 grams of tension
Contraction response to norepinephrine from resting force (maximum response) [4, 9]: 12.55 ± 1.22 grams of tension
Maximal constrictor response to norepinephrine compared with control vessels (in words) [4, 13]: paradoxical trend toward increased maximal constrictor response
Effect on norepinephrine-induced contraction (in words) [4, 14]: no inhibitory effect
Contraction response to phenylephrine from resting force (maximum response) [6, 7]: 14.29 ± 0.76 grams of tension
Contraction response to phenylephrine from resting force (maximum response) [6, 8]: 12.33 ± 0.76 grams of tension
Contraction response to phenylephrine from resting force (maximum response) [6, 9]: 10.46 ± 0.52 grams of tension
Maximal constrictor response to phenylephrine compared with control vessels (in words) [6, 13]: paradoxical trend toward increased maximal constrictor response
Effect on phenylephrine-induced contraction (in words) [6, 14]: no inhibitory effect
